A word on the LD50: it is the dose at which mortality reaches 50%. Read a high LD50 as lower toxicity.

Molecules are shown by their SMILES.

The test system of one series is monoamine oxidase (MAO). Nature of the series: MAO inhibiting activity in liver homogenates of rats one hour after p.o. administration. In kind it is in vivo. The settings on record: p.o. in the rat; MAO activity measured in liver homogenates one hour after administration; 60 min. How it is done:
(§1) Thus, the thiobenzamides of formula I to be tested were administered p.o. to rats. One hour after the administration, the rats were killed and the MAO inhibiting activity in the liver homogenates was measured according to the method in Biochem. Pharmacol. 12, pp. 1439-1441 (1963). The thus determined activity of representative thiobenzamides of formula I as well as their toxicity is evident from the ED50 values (μmol/kg, p.o. in the rat) or LD50 values (mg/kg, p.o. in the mouse) listed in the Table which follows: […]

Series [1] can be described thus: Toxicity (LD50), p.o. in the mouse. As to conditions: in vivo, po. How it is done: as §1

On to `S=C(NCCN1CCOCC1)c1ccc(Br)cc1` [p-bromo-N-(2-morpholinoethyl)-thiobenzamide], for which, in the series on monoamine oxidase (MAO), the “ED50 (MAO inhibiting activity)” value was 2 µmol/kg. The same compound came in with an LD50 in series [1] of 1250 to 2500 mg/kg.
The like results for `S=C(NCCN1CCOCC1)c1ccc(Cl)cc1` [p-chloro-N-(2-morpholinoethyl)thiobenzamide] were, in that order, 2 µmol/kg and 1250 to 2500 mg/kg.
On the same counts, the results for `CC(C)(C)c1ccc(C(=S)NCCN2CCOCC2)cc1` [p-t-butyl-N-(2-morpholinoethyl)-thiobenzamide] are 10 µmol/kg and more than 5000 mg/kg.

(Values after US4226865A, “Method of treating depression” (Hoffmann-La Roche Inc., priority 1976, dated 1980).)
